Experimental data published in patent US20240245633A1, “ROR Gamma Agonists as Enhancers of Protective Immunity” (University of Florida Research Foundation, Incorporated, priority 2015, published 2024).
Marks after values point to notes of the source that are not given here.

Columns and labels:
[1] = target: T1, RORγt LBD pretreated with ursolic acid (Homo sapiens, UniProt P51449); assay: Differential HDX-MS of RORγt pretreated with ursolic acid ± compound; format: binding
T1 construct: 5 μL of a 10 μM RORγt LBD solution (Apo or in complex with 10-excess compound)
T1 sequence (P51449 269-508 limits assumed): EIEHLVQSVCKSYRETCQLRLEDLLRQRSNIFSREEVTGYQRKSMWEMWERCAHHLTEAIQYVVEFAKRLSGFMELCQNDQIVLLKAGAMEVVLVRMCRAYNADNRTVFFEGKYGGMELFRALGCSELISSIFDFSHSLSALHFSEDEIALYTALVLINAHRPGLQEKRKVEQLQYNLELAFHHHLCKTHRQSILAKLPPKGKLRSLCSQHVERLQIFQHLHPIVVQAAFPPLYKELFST
Description: (§1) While the mechanism of action of RORγt agonists on regulation of the immune checkpoint receptor PD-1 is unclear, a correlation between RORγt and PD-1 expression has been observed in PD-1 knockout mice Z Regardless, to gain insights into the structural mechanism for agonist activity we examined the impact of putative agonist ligands on the conformational dynamics of RORγt. To achieve this, we utilized differential hydrogen/deuterium exchange (HDX) mass spectrometry.
(§2) HDX-MS. Solution-phase amide HDX was performed with a fully automated system as described previously with minor modifications^30,31. For differential HDX experiments, 5 μL of a 10 μM RORγt LBD solution (Apo or in complex with 10-excess compound) was diluted to 25 μL with D20-containing HDX buffer, and incubated at 4° C. for; 10 s, 30s, 60s, 900s, and 3,600s, Following on-exchange, unwanted forward or back exchange is minimized and the protein is denatured by dilution to 50 μL with 0.1% TFA in 3M urea (held at 4° C., pH 2.5). Samples are then passed across an immobilized pepsin column (prepared in house) at 50 μL min−1 (0.1% TFA, 15° C.) and the resulting peptides are trapped onto a Ce trap cartridge (Thermo Fisher, Hypersil Gold). Peptides were then gradient eluted (4% CH3CN to 40% CH3CN, 0,3% formic acid over 5 minutes, 4° C.) across a 1 mm×50 mm Cia HPLC column (Hypersil Gold, Thermo Fisher) and electrosprayed directly into a high resolution orbitrap mass spectrometer (Exactive, Thermo Fisher). Percent deuterium exchange values for peptide isotopic envelopes at each time point were calculated and processed using HDX Workbench^32 and overlaid onto RORγt crystal structures using pyMOL (DeLano Scientific). HDX data is presented as an average of three individual replicates across […] time points (10s, 60s, 300s, 900s, and 3600s).

[2] = test system: differentiated TH17 cells; assay: TH17 cell differentiation, flow cytometry; format: cell-based, murine; settings: murine TH17 cells
Method: Using flow cytometery surface PD-1 expression was analyzed to determine if the decrease in gene expression of PD-1 correlates to a decrease of the protein on the cell surface, Cell: surface PD-1 expression was measured in murine and human T cell lines as well as in ex vivo differentiated murine TH17 cells. […] Next we examined the impact of compound treatment on differentiated murine TH17 cells. […] To determine if there was an increase in the active T cell population during TH17 cell differentiation, the population of CD62L^−PD1^− double negative cells was measured using flow cytometry. […] To determine if the effects of SR0987 on PD-1 expression would be observed in a human cell line, Jurkat T cells were treated with the compound.
TH17 cell differentiation. For naïve T cell differentiation, CD4^+T cells were enriched by negative selection using a magnetic-activated cell sorter kit (Millipore). Enriched CD4+ T cells activated with 5 μg/mL of plate-abound anti CD3 antibody and 1 μg/mL of anti-CD28 antibody in the presence of 20 μg/mL of anti-IFNγ, 20 μg/mL of anti-IL-4, 1 ng/mL of TGFβ, AND 10 ng/mL of IL-6. Four-five days post differentiation, all cells were stimulated for 5 hr with 5 ng/mL of phorbol-12-myristate-13-acetate (Sigma) and 500 ng/mL of ionomycin (Sigma) contained with brefeldin A solution (eBioscience).

[3] = target: T2, RORγt LBD (Homo sapiens, UniProt P51449); assay: Differential HDX-MS of RORγt LBD ± compounds; format: binding
T2 construct: 5 μL of a 10 μM RORγt LBD solution (Apo or in complex with 10-excess compound)
T2 sequence (P51449 269-508 limits assumed): T1 sequence (P51449 269-508 limits assumed)
Description: as §1, §2

[4] = target: T3, Gal4-RORγ (Homo sapiens, UniProt P51449); assay: cell-based; settings: HEK-293T, read-out: fold induction of reporter gene expression
T3 sequence (P51449 269-508 limits assumed): T1 sequence (P51449 269-508 limits assumed)

CC(C)=CCC[C@@H](C)[C@H]1CC[C@H]2[C@@H]3CC=C4C[C@@H](O)CC[C@]4(C)[C@H]3CC[C@]12C [desmosterol]
protection to solvent exchange in H12 ([1]; RORγt exposed to ursolic acid, then compound): not observed | Differential HDX kinetics, peptide TEIEHLVQ ([1]; UA pretreated, 268-275, charge 2, H1): −1(4)* | Differential HDX kinetics, peptide TEIEHLVQSVC ([1]; UA pretreated, 268-278, charge 2, H1): −2(4)* | Differential HDX kinetics, peptide TEIEHLVQSVCKS ([1]; UA pretreated, 268-280, charge 3, H1): 2(2)* | Differential HDX kinetics, peptide TEIEHLVQSVCKSYRETCQ ([1]; UA pretreated, 268-286, charge 3, H1): −1(3)* | Differential HDX kinetics, peptide TEIEHLVQSVCKSYRETCQ ([1]; UA pretreated, 268-286, charge 4, H1): 0(3)* | Differential HDX kinetics, peptide RLEDL ([1]; UA pretreated, 288-292, charge 1, H2): 10(2)* | Differential HDX kinetics, peptide RLEDLL ([1]; UA pretreated, 288-293, charge 1, H2): 10(2)* | Differential HDX kinetics, peptide EVTGYQRKSMWEM ([1]; UA pretreated, 304-316, charge 2, H3/H4): −6(3)* | Differential HDX kinetics, peptide WERCAHHLTEAIQ ([1]; UA pretreated, 317-329, charge 3, H4): −1(1)* | Differential HDX kinetics, peptide WERCAHHTEAIQY ([1]; UA pretreated, 317-330, charge 3, H4): 0(1)* | Differential HDX kinetics, peptide WEGAKRLSGF ([1]; UA pretreated, 331-341, charge 2, H4/H5): −1(2)* | Differential HDX kinetics, peptide FAKRLSGF ([1]; UA pretreated, 334-341, charge 2, H4/H5): 0(2)* | Differential HDX kinetics, peptide CQNDQM ([1]; UA pretreated, 345-352, charge 1, H5/H6): 0(1)* | Differential HDX kinetics, peptide CRAYNADNRTVF ([1]; UA pretreated, 368-377, charge 2, B1): 0(2)* | Differential HDX kinetics, peptide YNADNRTVF ([1]; UA pretreated, 369-377, charge 2, B1): −1(3)* | Differential HDX kinetics, peptide FEGKYGGMEL ([1]; UA pretreated, 378-387, charge 2, B2/H7): −1(3)* | Differential HDX kinetics, peptide FRALGCSEL ([1]; UA pretreated, 388-395, charge 2, H7/H8): −1(2)* | Differential HDX kinetics, peptide LISSIFDFSHSLSAL ([1]; UA pretreated, 396-410, charge 2, H8): 0(2)* | Differential HDX kinetics, peptide ISSIFD ([1]; UA pretreated, 397-407, charge 1, H8): −3(2)* | Differential HDX kinetics, peptide ISSIFDFSHSLSAL ([1]; UA pretreated, 397-410, charge 2, H8): 0(2)* | Differential HDX kinetics, peptide IFDFSHSLSAL ([1]; UA pretreated, 400-410, charge 2, H8): 4(3)* | Differential HDX kinetics, peptide DFSHSKSAL ([1]; UA pretreated, 402-410, charge 2, H8): 3(2)* | Differential HDX kinetics, peptide FSHSLSAL ([1]; UA pretreated, 403-410, charge 2, H8): 0(3)* | Differential HDX kinetics, peptide AXLPPXGKLRSLCSQ ([1]; UA pretreated, 454-478, charge 3, H11): −1(4)* | Differential HDX kinetics, peptide HVERLQIFQHLHPIWQ ([1]; UA pretreated, 479-495, charge 2, H11): −6(3)* | Differential HDX kinetics, peptide AAFPPLYKEL ([1]; UA pretreated, 496-505, charge 2, H12): −4(2)* | Differential HDX kinetics, peptide AAFPPLYKELF ([1]; UA pretreated, 496-506, charge 2, H12): −3(2)* | Differential HDX kinetics, peptide HFSEDEIAL ([1]; UA pretreated, charge 2, H9): −1(2)* | Differential HDX kinetics, peptide QIFQHLHPIWQ ([1]; UA pretreated, charge 2, H11): −3(3)* | Differential HDX kinetics, peptide TEIEHLVQSVCKSYRETCQL ([1]; UA pretreated, charge 3, H1): −3(4)* | Differential HDX kinetics, peptide VRMCRAYNADNRTVF ([1]; UA pretreated, charge 3, H6/B1): −1(1)* | IL17 production (intracellular staining of IL17A) [2]: trend towards increased IL17 production | surface PD-1 expression [2]: no effect | Differential HDX kinetics, peptide TEIEHLVQSVC ([3]; 268-278, charge 2, H1): −1(4)* | Differential HDX kinetics, peptide TEIEHLVQSVCXS ([3]; 268-280, charge 3, H1): 0(5)* | Differential HDX kinetics, peptide TEIEHLVQSVCKSYRETCQ ([3]; 268-286, charge 2, H1): −5(3) | Differential HDX kinetics, peptide LRLEDL ([3]; 287-292, charge 2, H2): −5(4)* | Differential HDX kinetics, peptide RLEDLL ([3]; 288-293, charge 2, H2): −6(3) | Differential HDX kinetics, peptide RLEDLLRQRSNIFSRE ([3]; 288-303, charge 4, H2/H3): −10(4) | Differential HDX kinetics, peptide WERCAHHLTEAIQ ([3]; 317-329, charge 2, H4): −5(1)* | Differential HDX kinetics, peptide WERCAHHTEAIQY ([3]; 317-330, charge 3, H4): −4(1)* | Differential HDX kinetics, peptide WEGAKRLSGF ([3]; 331-341, charge 2, H4/H5): −1(1)* | Differential HDX kinetics, peptide AKRLSGF ([3]; 335-341, charge 2, H4/H5): −1(2)* | Differential HDX kinetics, peptide CQNDQVL ([3]; 345-352, charge 1, H5/H6): 0(1)* | Differential HDX kinetics, peptide VRMCRAYNAENRTVF ([3]; 363-377, charge 3, H6/B1): −7(2) | Differential HDX kinetics, peptide CRAYCAONRTVF ([3]; 366-377, charge 2, B1): −5(2) | Differential HDX kinetics, peptide FEGKYGGMEL ([3]; 373-387, charge 2, B2/H7): −6(3) | Differential HDX kinetics, peptide FRALGCSE ([3]; 386-398, charge 2, H7/H8): −4(3)* | Differential HDX kinetics, peptide LISSIFDFSHSLSAL ([3]; 395-410, charge 2, H8): −4(2)* | Differential HDX kinetics, peptide ISSIFD ([3]; 397-402, charge 1, H8): −4(2)* | Differential HDX kinetics, peptide ISSIFDFSHSL ([3]; 397-407, charge 2, H8): −4(2)* | Differential HDX kinetics, peptide ISSIFDSHSLSAL ([3]; 397-410, charge 2, H8): −4(2)* | Differential HDX kinetics, peptide DFSHSLSAL ([3]; 402-410, charge 1, H8): −5(3) | Differential HDX kinetics, peptide FSHSLSAL ([3]; 403-410, charge 2, H8): −4(3)* | Differential HDX kinetics, peptide HFSEDEIAL ([3]; 411-419, charge 2, H9): −1(1)* | Differential HDX kinetics, peptide LAFHHHLCKTHRQSL ([3]; 448-463, charge 4, H10): −3(2)* | Differential HDX kinetics, peptide AKLPFXGKLRSLCSQ ([3]; 464-478, charge 3, H11): −12(4) | Differential HDX kinetics, peptide HVERLQFQHLHPIVVQ ([3]; 479-495, charge 2, H11): −12(4) | Differential HDX kinetics, peptide QFQHLHPIVVQ ([3]; 484-495, charge 2, H11): −6(4)* | Differential HDX kinetics, peptide AAFPPLYXEL ([3]; 495-505, charge 2, H12): −2(4)* | Differential HDX kinetics, peptide AAFPPLYZELF ([3]; 496-506, charge 2, H12): −3(3)* | HDX kinetics in helix 12 (H12) ([3]; RORγt LBD ± compound): No statistically significant change in HDX kinetics | Differential HDX kinetics, peptide TEIEHLVQ ([3]; charge 2, H1, percent deuterium exchange difference): −2(5)* | fold induction at 30 µM [4]: ≥ 2
